{
  "source": "patent US20220268691A1",
  "about": "“MICROSCOPE ADAPTOR AND SAMPLE MOUNT FOR MAGNETICALLY ACTUATING SAMPLE” (University of Southern California, priority 2021, published 2022)",
  "key": {"[1]": {"tested_on": "PDAC", "settings": "GEM-based treatments; pancreatic cancer patients; cited from earlier work"}, "[2]": {"tested_on": "Pancreatic spheroids", "test": "Magnetogel toxicity study (viability of pancreatic spheroids in M-gel)", "assay_type": "cell-based", "settings": "M-gel/cells treated with 10 μL of gemcitabine; 96-well culture plate; sextuplet", "procedure": "Pancreatic spheroids were grown on a 96-well culture plate. All measurements were performed in sextuplet (6×). The viability from these wells was compared against two controls: Matrigel/cells only, and M-gel/cells treated with 10 μL of gemcitabine (GEM), a common chemotherapeutic agent (as shown in FIG. 2B)."}},
  "data": [
    {"smiles": "Nc1ccn([C@@H]2O[C@H](CO)[C@@H](O)C2(F)F)c(=O)n1", "note": "[GEM, gemcitabine]", "values": [
      {"measurement": "response to treatment observed in patients", "setting": "[1]", "value": "37 % of patients"},
      {"measurement": "viability of cells (GEM control)", "setting": "[2]", "value": "cells killed"}
    ]}
  ]
}
